Assay results: patent publication US7569570B2, “Thienopyrimidines, process for preparing the same and use thereof” (Takeda Pharmaceutical Company Limited, priority 2002, dated 2009)

**Q.** Which melting point does the source give for `CCNC(=O)Nc1ccc(-c2sc3c(c2CN(C)C(C)C)c(=O)n(-c2ccccc2)c(=O)n3Cc2c(F)cccc2F)cc1` [Example 92, N-[4-(1-(2,6-difluorobenzyl)-5-{[isopropyl (methyl)amino]methyl}-2,4-dioxo-3-phenyl-1,2,3,4-tetrahydrothieno[2,3-d]pyrimidin-6-yl)phenyl]-N′-ethylurea] here?
**A.** 208 to 210 °C

**Q.** Which melting point does the source give for `CCNC(=O)Nc1ccc(-c2sc3c(c2CN(C)C2CCCC2)c(=O)n(-c2ccccc2)c(=O)n3Cc2c(F)cccc2F)cc1` [Example 93, N-{4-[5-{[cyclopentyl(methyl)amino]methyl}-1-(2,6-difluorobenzyl)-2,4-dioxo-3-phenyl-1,2,3,4-tetrahydrothieno[2,3-d]pyrimidin-6-yl]phenyl}-N′-ethylurea] here?
**A.** 210 to 213 °C

**Q.** With `CCNC(=O)Nc1ccc(-c2sc3c(c2CN(C)CCC(=O)N2CCCC2)c(=O)n(-c2ccccc2)c(=O)n3Cc2c(F)cccc2F)cc1` [Example 94, N-{4-[1-(2,6-difluorobenzyl)-5-({methyl[3-oxo-3-(1-pyrrolidinyl)propyl]amino}methyl)-2,4-dioxo-3-phenyl-1,2,3,4-tetrahydrothieno[2,3-d]pyrimidin-6-yl]phenyl}-N′-ethylurea] as the compound, how does the melting point read?
**A.** 240 to 244 °C

**Q.** Which melting point does the source give for `CCNC(=O)Nc1ccc(-c2sc3c(c2CN(C)CCC(=O)NCCOC)c(=O)n(-c2ccccc2)c(=O)n3Cc2c(F)cccc2F)cc1` [Example 95, 3-[{[1-(2,6-difluorobenzyl)-6-(4-{[(ethylamino)carbonyl]amino}phenyl)-2,4-dioxo-3-phenyl-1,2,3,4-tetrahydrothieno[2,3-d]pyrimidin-5-yl]methyl}(methyl)amino]-N-(2-methoxyethyl)propanamide] here?
**A.** 240 to 244 °C

**Q.** Which melting point does the source give for `CCNC(=O)Nc1ccc(-c2sc3c(c2CN(C)CCOC)c(=O)n(-c2ccc(N)cc2)c(=O)n3Cc2c(F)cccc2F)cc1` [Example 97, N-[4-(3-(4-aminophenyl)-1-(2,6-difluorobenzyl)-5-{[2-methoxyethyl(methyl)amino]methyl}-2,4-dioxo-1,2,3,4-tetrahydrothieno[2,3-d]pyrimidin-6-yl)phenyl]-N′-ethylurea] here?
**A.** 205 to 207 °C

**Q.** Which melting point does the source give for `CCNC(=O)Nc1ccc(-c2sc3c(c2CN(C)CCOC)c(=O)n(-c2ccc(NC(C)=O)cc2)c(=O)n3Cc2c(F)cccc2F)cc1` [Example 98, N-[4-(3-(4-acetoaminophenyl)-1-(2,6-difluorobenzyl)-5-{[2-methoxyethyl(methyl)amino]methyl}-2,4-dioxo-1,2,3,4-tetrahydrothieno[2,3-d]pyrimidin-6-yl)phenyl]-N′-ethylurea] here?
**A.** 218 to 220 °C

**Q.** For `CCNC(=O)Nc1ccc(-c2sc3c(c2CN(C)CCOC)c(=O)n(-c2ccc(NC(=O)NCC)cc2)c(=O)n3Cc2c(F)cccc2F)cc1` [Example 99, N-[4-(3-(4-{(ethylamino)carbonylamino}phenyl)-1-(2,6-difluorobenzyl)-5-{[2-methoxyethyl(methyl)amino]methyl}-2,4-dioxo-1,2,3,4-tetrahydrothieno[2,3-d]pyrimidin-6-yl)phenyl]-N′-ethylurea], which melting point is on record?
**A.** 236 to 239 °C

**Q.** Which melting point does the source give for `CCNC(=O)Nc1ccc(-c2sc3c(c2CN(C)CCC(=O)N(C)C)c(=O)n(-c2ccc(OCCOC)cc2)c(=O)n3Cc2c(F)cccc2F)cc1` [Example 100, 3-[({1-2,6-(difluorobenzyl)-6-(4-{[(ethylamino)carbonyl]amino}phenyl)-3-[4-(2-methoxyethoxy)phenyl]-2,4-dioxo-1,2,3,4-tetrahydrothieno[2,3-d]pyrimidin-5-yl)methyl)(methyl)amino)-N,N-dimethylpropanamide] here?
**A.** 215 to 218 °C

**Q.** Which melting point does the source give for `CCNC(=O)Nc1ccc(-c2sc3c(c2CN(C)CCOC)c(=O)n(-c2ccc(OCCOC)c(OCCOC)c2)c(=O)n3Cc2c(F)cccc2F)cc1` [Example 101, N-[4-(3-[3,4-bis(2-methoxyethoxy)phenyl]-1-(2,6-difluorobenzyl)-5-{[(2-methoxyethyl)(methyl)amino]methyl}-2,4-dioxo-1,2,3,4-tetrahydrothieno[2,3-d]pyrimidin-6-yl)phenyl]-N′-ethylurea] here?
**A.** 206 to 208 °C

**Q.** For `CCNC(=O)Nc1ccc(-c2sc3c(c2CN(C)CCOC)c(=O)n(-c2ccc(OCc4ccccc4)cc2)c(=O)n3Cc2c(F)cccc2F)cc1` [Example 102], which melting point is on record?
**A.** 223 to 225 °C

**Q.** For `CCNC(=O)Nc1ccc(-c2sc3c(c2CN(C)CCOC)c(=O)n(-c2ccc(O)cc2)c(=O)n3Cc2c(F)cccc2F)cc1` [Example 103], which melting point is on record?
**A.** 260 to 265 °C

**Q.** With `CCNC(=O)Nc1ccc(-c2sc3c(c2CN(C)CCOC)c(=O)n(-c2ccc(OCCOC)cc2)c(=O)n3Cc2c(F)cccc2F)cc1` [Example 104] as the compound, how does the melting point read?
**A.** 215 to 218 °C

**Q.** With `CCNC(=O)Nc1ccc(-c2sc3c(c2CN(C)CCOC)c(=O)n(-c2ccc(OCCOC)c(OCCOC)c2)c(=O)n3Cc2c(F)cccc2F)cc1` [Example 105] as the compound, how does the melting point read?
**A.** 222 to 225 °C

**Q.** For `CCNC(=O)Nc1ccc(-c2sc3c(c2CN(C)CCOC)c(=O)n(-c2ccc(OCCNS(C)(=O)=O)cc2)c(=O)n3Cc2c(F)cccc2F)cc1` [Example 106], which melting point is on record?
**A.** 232 to 235 °C

**Q.** With `CCNC(=O)Nc1ccc(-c2sc3c(c2CN(C)CCOC)c(=O)n(-c2ccc(OCCOC(C)=O)cc2)c(=O)n3Cc2c(F)cccc2F)cc1` [Example 107, 2-[4-(1-(2,6-difluorobenzyl)-6-(4-{[(ethylamino)carbonyl]amino}phenyl)-5-([(2-methoxyethyl(methyl)amino)methyl]-2,4-dioxo-1,2,3,4-tetrahydrothieno[2,3-d]pyrimidin-3(2H)-yl}phenoxy)ethyl acetate] as the compound, how does the melting point read?
**A.** 212 to 215 °C

**Q.** Which melting point does the source give for `CCNC(=O)Nc1ccc(-c2sc3c(c2CN(C)CCOC)c(=O)n(-c2ccc(OCCO)cc2)c(=O)n3Cc2c(F)cccc2F)cc1` [Example 108] here?
**A.** 236 to 238 °C

**Q.** Which melting point does the source give for `CCNC(=O)Nc1ccc(-c2sc3c(c2CN(C)CCOCCOC)c(=O)n(-c2ccccc2)c(=O)n3Cc2c(F)cccc2F)cc1` [Example 109, N-[4-(1-(2,6-difluorobenzyl)-5-{[[2-(2-methoxyethoxy)ethyl](methyl)amino]methyl}-2,4-dioxo-3 phenyl-1,2,3,4-tetrahydrothieno[2,3-d]pyrimidin-6-yl)phenyl]-N′-ethylurea] here?
**A.** 228 to 231 °C

**Q.** With `CCNC(=O)Nc1ccc(-c2sc3c(c2CN(C)CCOCCOCC)c(=O)n(-c2ccccc2)c(=O)n3Cc2c(F)cccc2F)cc1` [Example 111, N-[4-(1-(2,6-difluorobenzyl)-5-[{[2-(2-ethoxy)ethoxy]ethyl(methyl)amino}methyl]-2,4-dioxo-3-phenyl-1,2,3,4-tetrahydrothieno[2,3-d]pyrimidin-6-yl)phenyl]-N′-ethylurea] as the compound, how does the melting point read?
**A.** 230 to 233 °C

**Q.** Which melting point does the source give for `CCNC(=O)Nc1ccc(-c2sc3c(c2CN(C)Cc2ccccn2)c(=O)n(-c2ccccc2)c(=O)n3Cc2c(F)cccc2F)cc1` [Example 113] here?
**A.** 203 to 204 °C

**Q.** Which melting point does the source give for `CCNC(=O)Nc1ccc(-c2sc3c(c2CN(C)Cc2ccccn2)c(=O)n(-c2ccc(F)cc2)c(=O)n3Cc2c(F)cccc2F)cc1` [Example 114] here?
**A.** 243 to 244 °C
